Source: patent publication US20140329858A1, “Cyclic Urea Derivatives As Androgen Receptor Antagonists” (priority 2011, published 2014)

Tested on: Vcap cells
Test: Dihydrotestosterone (DHT) mediated XTT cell proliferation assay for screening AR antagonists using Vcap cells
Format: cell-based
Details: Homo sapiens, 240 h, in the presence of 0.2 nM DHT, XTT readout on Day 10, IC50 curves from 8 concentrations
Method: Dihydrotestosterone (DHT) Mediated XTT Cell Proliferation Assay for Screening AR Antagonists Using Vcap cells
The Vcap cells (4×10^6 cells) were seeded in a T-75 flask containing DMEM with 15% FBS. After 72 hours, the media was removed; the cells were washed once and replaced with phenol red free DMEM containing 8% charcoal stripped serum. Then, the cells were starved in phenol red free DMEM with 8% charcoal stripped serum for 5 days. Following the starvation, the cells were harvested and seeded in 96 well plates (10×10^3 cells per well) in phenol red free DMEM with 8% charcoal stripped serum (Day 0). The cells were allowed to settle and on Day 4 they were treated with different concentrations of the compound (30 μM, 10 μM, 1 μM, 500 nM, 100 nM, 10 nM, 1 nM, 0.1 nM) in the presence of 0.2 nM DHT. DHT alone and a DMSO controls were also included. All treatments were done in triplicate. The drugs were replenished on Day 7 and the cells were allowed to grow for another 72 hours. On Day 10, the experiment was terminated by adding the XTT reagent (2,3-bis[2-methoxy-4-notro-5-sulfophenyl]-2H-tetrazolium-5-caboxyanilide inner salt) dissolved in Phenol red free DMEM without serum. The cells with the XTT reagents were incubated inside the CO2 incubator for 3-4 hours for color development; after which the readings were taken at […] using a spectramax Gemini plate reader.
Data fitting: The IC50 curves for the 8 compound concentrations were calculated with GraphPad Prism software using the sigmoidal dose-response function. (Graphpad Software, San Diego, Calif., USA).

Compound	IC50
N#Cc1ccc(CN2C(=O)N(c3ccc(C#N)c(C(F)(F)F)c3)[C@@H]3CCCC[C@H]32)cn1 (racemic) [Example 48, Trans-5-((-(4-cyano-3-(trifluoromethyl)phenyl)-2-oxooctahydro-1H-benzo[d]im-idazol-1-yl)methyl)picolinonitrile (±)]	> 10000 nM
N#Cc1ccc(N2C(=O)N(c3ccc(C(=O)NOCC4CCC4)c(F)c3)[C@@H]3CCCC[C@H]32)cc1C(F)(F)F (racemic) [Example 21, Trans-4-(3-(4-cyano-3-(trifluoromethyl)phenyl)-2-oxooctahydro-1H-benzo[c]im-idazol-1-yl)-N-(cyclobutylmethoxy)-2-fluorobenzamide (±)]	255 nM
N#Cc1ccc(N2C(=O)N(Cc3ccc(-n4cccn4)nc3)[C@@H]3CCCC[C@H]32)cc1C(F)(F)F (racemic) [Example 50, Trans-4-(3-((6-(1H-pyrazol-1-yl)pyridin-3-yl)methyl)-2-oxooctahydro-1H-benzo[d]imidazol-1-yl)-2-(trifluoromethyl)benzonitrile (±)]	> 10000 nM
CNC(=S)c1ccc(N2C(=O)N(c3ccc(C#N)c(C(F)(F)F)c3)[C@H]3CCCC[C@@H]32)cc1F [Example 41, 4-((3aS,7 aS)-3-(4-cyano-3-(trifluoromethyl)phenyl)-2-oxooctahydro-1H-benzo[d]imidazol-1-yl)-2-fluoro-N-methylbenzothioamide]	134 nM
CN(C)CCCONC(=O)c1ccc(N2C(=O)N(c3ccc(C#N)c(C(F)(F)F)c3)[C@@H]3CCCC[C@H]32)cc1F (racemic) [Example 25, Trans 4-(3-(4-cyano-3-(trifluoromethyl)phenyl)-2-oxooctahydro-1H-benzo[d]im-idazol-1-yl)-N-(3-(dimethylamino)propoxy)-2-fluorobenzamide (±)]	42.4 nM
COCCONC(=O)c1ccc(N2C(=O)N(c3ccc(C#N)c(C(F)(F)F)c3)[C@@H]3CCCC[C@H]32)cc1F (racemic) [Example 20, Trans-4-(3-(4-cyano-3-(trifluoromethyl)phenyl)-2-oxooctahydro-1H-benzo[d]im-idazol-1-yl)-2-fluoro-N-(2-methoxyethoxy)benzamide (±)]	322 nM
CCOC(=O)c1ccc(N2C(=O)N(c3ccc(C#N)c(C(F)(F)F)c3)[C@@H]3CCCC[C@H]32)cc1F (racemic) [Example 6, Trans-ethyl-4-(3-(4-cyano-3-trifluoromethyl)phenyl)-2-oxooctahydro-1H-benzo[d]imidazol-1-yl)-2-fluorobenzoate (±)]	> 10000 nM
CNC(=O)c1cc(N2C(=O)N(c3ccc(C#N)c(C(F)(F)F)c3)[C@H]3CCCC[C@@H]32)ccn1 [Example 56, 4-((3aS,7aS)-3-(4-cyano-3-(trifluoromethyl)phenyl)-2-oxooctahydro-1H-benzo[d]imidazol-1-yl)-N-methylpicolinamide]	1820 nM
N#Cc1ccc(N2C(=O)N(Cc3cc[nH]n3)[C@@H]3CCCC[C@H]32)cc1C(F)(F)F (racemic) [Example 51, Trans-4-(3-((1H-pyrazol-3-yl)methyl)-2-oxooctahydro-1H-benzo[d]imidazol-1-yl)-2-(trifluoromethyl)benzonitrile (±)]	1080 nM
N#Cc1ccc(N2C(=O)N(c3ccc(C(=O)NC(CO)CO)c(F)c3)[C@H]3CCCC[C@@H]32)cc1C(F)(F)F [Example 37, 4-((3aS,7aS)-3-(4-cyano-3-(trifluoromethyl)phenyl)-2-oxooctahydro-1H-benzo[d]imidazol-1-yl)-N-(1,3-dihydroxypropan-2-yl)-2-fluorobenzamide]	6080 nM
N#Cc1ccc(N2C(=O)N(c3ccccc3)[C@@H]3CCCC[C@H]32)cc1C(F)(F)F (racemic) [Example 5, Trans-4-(2-oxo-3-phenyloctahydro-1H-benzo[d]imidazol-1-yl)-2-(trifluoromethyl)benzonitrile (±)]	1020 nM
N#Cc1ccc(N2C(=O)N(c3ccncc3)[C@@H]3CCCC[C@H]32)cc1C(F)(F)F (racemic) [Example 4, Trans-4-(2-oxo-3-(pyridin-4-yl)octahydro-1H-benzo[d]imidazol-1-yl)-2-(trifluoromethyl)benzonitrile (±)]	1040 nM
CONC(=O)c1ccc(N2C(=O)N(c3ccc(C#N)c(C(F)(F)F)c3)[C@@H]3CCCC[C@H]32)cc1F (racemic) [Example 18, Trans-4-(3-(4-cyano-3-(trifluoromethyl)phenyl)-2-oxooctahydro-1H-benzo[d]im-idazol-1-yl)-2-fluoro-N-methoxybenzamide (±)]	374 nM
CNc1ccc(N2C(=O)N(c3ccc(C#N)c(C(F)(F)F)c3)[C@@H]3CCCC[C@H]32)cc1F (racemic) [Example 14, Trans-4-(3-(3-fluoro-4-(methylamino)phenyl)-2-oxooctahydro-1H-benzo[d]im-idazol-1-yl)-2-(trifluoromethyl)benzonitrile (±)]	715 nM
Cc1cc(N2C(=O)N(c3ccc(C#N)c(C(F)(F)F)c3)[C@H]3CCCC[C@@H]32)ccc1C(=O)O [Example 69, 4-((3aS,7aS)-3-(4-cyano-3-(trifluoromethyl)phenyl)-2-oxooctahydro-1H-benzo[d]imidazol-1-yl)-2-methylbenzoic acid]	> 10000 nM
CC(C)CONC(=O)c1ccc(N2C(=O)N(c3ccc(C#N)c(C(F)(F)F)c3)[C@@H]3CCCC[C@H]32)cc1F (racemic) [Example 22, Trans-4-(3-(4-cyano-3-(trifluoromethyl)phenyl)-2-oxooctahydro-1H-benzo[d]im-idazol-1-yl)-2-fluoro-N-isobutoxybenzamide (±)]	196 nM
N#Cc1ccc(N2C(=O)N(c3ccc(C(=O)N[C@@H]4CCOC4)c(F)c3)[C@@H]3CCCC[C@H]32)cc1C(F)(F)F (mixture of isomers) [Example 34, 4-((3aR,7aR)-3-(4-cyano-3-(trifluoromethyl)phenyl)-2-oxooctahydro-1H-benzo[d]imidazol-1-yl)-2-fluoro-N—((R)-tetrahydrofuran-3-yl)benzamide and 4-((3aS,7aS)-3-(4-cyano-3-(trifluoromethyl)phenyl)-2-oxooctahydro-1H-benzo[d]imidazol-1-yl)-2-fluoro-N—((R)-tetrahydrofuran-3-yl)benzamide]	317 nM
N#Cc1ccc(N2C(=O)N(c3ccc(C(N)=O)c(F)c3)[C@@H]3CCCC[C@H]32)cc1C(F)(F)F (racemic) [Example 30, Trans-4-(3-(4-cyano-3-(trifluoromethyl)phenyl)-2-oxooctahydro-1H-benzo[d]im-idazol-1-yl)-2-fluorobenzamide (±)]	76.3 nM
N#Cc1ccc(N2C(=O)N(c3cc(Cl)cc(Cl)c3)[C@@H]3CCCC[C@H]32)cc1C(F)(F)F (racemic) [Example 43, Trans-4-(3-(3,5-dichlorophenyl)-2-oxooctahydro-1H-benzo[d]imidazol-1-yl)-2-(trifluoromethyl)benzonitrile (±)]	339 nM
N#Cc1ccc(N2C(=O)N(c3ccnc(C(F)(F)F)c3)[C@@H]3CCCC[C@H]32)cc1C(F)(F)F (racemic) [Example 11, Trans-4-(2-oxo-3-(2-(trifluoromethyl)pyridin-4-yl)octahydro-1H-benzo[d]imidazol-1-yl)-2-(trifluoromethyl)benzonitrile (±)]	1240 nM
CNC(=O)c1ccc(N2C(=O)N(c3ccc(C#N)c(C(F)(F)F)c3)[C@@H]3CCCC[C@H]32)cc1F (racemic) [Example 1, Trans-4-{3-[4-cyano-3-(trifluoromethyl)phenyl]-2-oxo-octahydro-1H-1,3-benzodiazol-1-yl}-2-fluoro-N-Methylbenzamide (±)]	245 nM
CN1C(=O)N(c2ccc(C#N)c(C(F)(F)F)c2)[C@@H]2CCC(c3ccccc3)C[C@H]21 (stereo partly drawn) [Example 90, Trans-4-(3-methyl-2-oxo-5-phenyloctahydro-1H-benzo[d]imidazol-1-yl)-2-(trifluoromethyl)benzonitrile]	372 nM

Same assay, conditions: in the presence of 0.2 nM DHT, XTT readout on Day 10, IC50 curves from 8 concentrations

Compound	IC50
N#Cc1ccc(N2C(=O)N(c3ccnc(F)c3)[C@@H]3CCCC[C@H]32)cc1C(F)(F)F (relative stereo) [Example 10b, Trans-4-(3-(2-fluoropyridin-4-yl)-2-oxooctahydro-1H-benzo[d]imidazol-1-yl)-2-(trifluoromethyl)benzonitrile (−)]	280 nM
CNC(=O)c1ccc(N2C(=O)N(c3ccc(C#N)c(C(F)(F)F)c3)[C@@H]3CCCCC[C@H]32)cc1F (relative stereo) [Example 80b, Trans-4-(3-(4-cyano-3-(trifluoromethyl)phenyl)-2-oxooctahydrocyclohepta[d]imidazol-1(2H)-yl)-2-fluoro-N-methylbenzamide (+)]	2180 nM
4-((3aS,7aS)-3-(4-cyano-3-(trifluoromethyl)phenyl)-2-oxooctahydro-1H-benzo[d]imidazol-1-yl)-2-fluoro-N—((S)-tetrahydrofuran-3-yl)benzamide and 4-((3aS,7aS)-3-(4-cyano-3-(trifluoromethyl)phenyl)-2-oxooctahydro-1H-benzo[c]imidazol-1-yl)-2-fluoro-N—((R)-tetrahydrofuran-3-yl)benzamide [Example 35]	236 nM
